What was measured:
recombinant human Chk1 = molecular target: T1, recombinant human Chk1 (Homo sapiens, UniProt O14757); test: IMAP fluorescence polarization kinase inhibition assay, Chk1; type: biochemical; conditions: read-out: IC50 Chk1; single assay; head-to-head testing, single batch of enzyme
T1 sequence (O14757 1-476): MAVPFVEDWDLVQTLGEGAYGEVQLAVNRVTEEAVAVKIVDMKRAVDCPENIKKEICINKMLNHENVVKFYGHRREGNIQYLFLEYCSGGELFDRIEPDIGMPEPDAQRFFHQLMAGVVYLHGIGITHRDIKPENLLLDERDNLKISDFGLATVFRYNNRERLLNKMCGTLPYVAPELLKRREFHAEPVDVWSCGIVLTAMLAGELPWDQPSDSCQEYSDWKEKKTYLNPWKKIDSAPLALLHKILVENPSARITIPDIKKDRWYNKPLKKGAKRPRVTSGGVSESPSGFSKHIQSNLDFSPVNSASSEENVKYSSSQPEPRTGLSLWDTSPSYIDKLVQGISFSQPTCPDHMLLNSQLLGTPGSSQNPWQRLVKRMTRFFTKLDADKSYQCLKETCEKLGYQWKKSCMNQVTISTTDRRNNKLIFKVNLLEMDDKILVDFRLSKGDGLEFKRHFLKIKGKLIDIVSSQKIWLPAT

recombinant human RSK2 = recombinant human RSK2 (Homo sapiens, UniProt P51812); test: IMAP fluorescence polarization kinase inhibition assay, RSK2; type: biochemical; conditions: read-out: IC50 RSK2; single assay; head-to-head testing, single batch of enzyme
Sequence of recombinant human RSK2 (P51812 whole entry): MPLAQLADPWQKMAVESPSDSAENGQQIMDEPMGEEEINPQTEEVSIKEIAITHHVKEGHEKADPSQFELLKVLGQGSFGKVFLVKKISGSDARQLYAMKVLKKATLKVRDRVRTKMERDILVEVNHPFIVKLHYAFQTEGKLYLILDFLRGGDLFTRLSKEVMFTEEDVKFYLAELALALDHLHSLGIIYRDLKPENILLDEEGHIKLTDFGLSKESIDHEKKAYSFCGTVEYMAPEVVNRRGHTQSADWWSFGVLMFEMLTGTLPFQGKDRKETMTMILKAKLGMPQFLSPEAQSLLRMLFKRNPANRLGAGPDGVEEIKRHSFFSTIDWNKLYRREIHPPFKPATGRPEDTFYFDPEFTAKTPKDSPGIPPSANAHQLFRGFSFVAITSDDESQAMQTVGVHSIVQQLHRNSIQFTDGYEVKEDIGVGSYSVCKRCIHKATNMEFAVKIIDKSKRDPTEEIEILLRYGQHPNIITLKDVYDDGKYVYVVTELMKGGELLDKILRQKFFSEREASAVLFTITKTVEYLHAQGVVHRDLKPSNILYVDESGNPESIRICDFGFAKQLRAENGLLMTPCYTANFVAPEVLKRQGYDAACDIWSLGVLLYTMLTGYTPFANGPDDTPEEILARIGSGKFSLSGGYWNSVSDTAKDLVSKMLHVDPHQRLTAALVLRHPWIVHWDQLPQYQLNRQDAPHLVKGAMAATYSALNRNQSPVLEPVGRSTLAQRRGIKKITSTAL

IC50 (recombinant human Chk1): 8.1 µM
IC50 (recombinant human RSK2): 39 µM
SMILES: CC(=NNC(=N)N)c1ccc(NC(=O)c2cc3cccc([N+](=O)[O-])c3[nH]2)cc1 [PV1019, 7-nitro-1H-indole-2-carboxylic acid {4-[1-(guanidinohydrazone)-ethyl]-phenyl}-amide]
